Values joined by “and” are separate entries in the source; they are usually repeats but may differ in a detail not shown here. Identical values can stand only once. “Also recorded” adds a separate entry of the source.
What was measured:
[1] = test system: HIV-Infected Human Monocyte-Derived Macrophages; assay: Reverse transcription rates in HIV-infected monocyte-derived macrophages; format: cell-based; details: 1 to 10 uM; vs untreated and mock-infected MDM
Procedure: Primary human monocyte-derived macrophages (MDM) were prepared by culturing elutriated monocytes in RPMI-1640 medium, supplemented with 10% fetal bovine serum for 5 to 7 days on ultra-low attachment plates. MDMs were detached from the plates and plated onto tissue culture dishes or microscope culture chambers. MDMs in 6-well plates were infected with WT pNL(AD8) virus stocks and 2×10^6 reverse transcriptase cpm/well. Various incubated concentrations of platinum(IV) compound ranging from 1 to 10 uM were compared with untreated (no drug) and mock-infected MDM reverse transcription rates (counts per minute/microliter). Medium in the MDM cultures was changed every two days and an aliquot was reserved for reverse transcriptase (RT) activity at each time point (Gousset, 2008). […] This activity parallels that observed by Mark-Danieli et al. (2005) by certain zinc finger mutations of the nucleocapsid protein; other investigators have reported decreases or no changes in transcription rates with various mutations (Ramboarina, 2004; Houzet, 2008). […] Increasing the efficiency of reverse transcription initiation is detrimental to viral replication (Thomas and Gorelick, 2008). One role of nucleocapsid proteins is regulation of the transcription cadence in virally-infected cells.

[2] = test system: transfected HeLa and HEK-293 cells; assay: Viral transcription or infectivity in transfected HeLa and HEK-293 cells; format: cell-based
IL-13 = assay: Feline blood serum immunofluorescent bead analysis: IL-13; format: in vivo, cat; details: cats BR, CF
Procedure: (§1) Test sera samples from select felines were analyzed using the Rules-Based Medicine (Austin, Tex.) human multi-analyte for 90 measures from a single sample of less than 0.5 mL. The assay uses immunofluorescent beads to simultaneously measure antibody recognition to individually identifiable colored beads, each conjugated with a specific antibody, within a single well plate. Blood samples were drawn preceding (pretreatment) and following (post treatment) one-month FX101 treatment (from felines in Example 6), and are compared with two uninfected control felines. Human cross-reactive antibodies are commonly used for felines, and are relative rather than quantitative measures. Reductions in TNF-alpha and MMP-2 are evident in treated cats; TIMP-1 (Tissue Inhibitor of Metalloproteinases) is not associated with the downregulation of MMP-2. Both MMP-2 and MMP-9, as well as MCP-1, are considered important contributors to the penetration of virally-infected cells across the BBB (Webster, 2006). Additional comments follow the table.

[3] = target: T1, synthetic peptide F2, the carboxy-terminal zinc finger domain of HIV-1 (Human immunodeficiency virus type 1 group M subtype B, UniProt P12493); details: 1:1 metal:F2, 10^−4 mole/liter in PBS
Procedure: The synthetic peptide F2, the carboxy-terminal zinc finger domain of HIV-1, was examined by ultraviolet-visible absorption spectroscopy for its interaction with various metals. […] Stock solutions of 2×10^−4 mole/liter F2 peptide were prepared in phosphate buffered saline (PBS) without calcium or magnesium; known stock concentrations of Fe(II), Co(II), Zn(II) and Pt(IV) metals were also prepared in PBS. One to one ratios of F2 peptide with each metal were individually combined at room temperature with final concentrations of 10^−4 mole/liter, and spectra were collected at various times using a Nanodrop Spectrophotometer (Thermo Scientific, Inc.) having a xenon flash lamp and requiring <2 microliters of sample deposited directly onto an optical lense.

MMP-2 = assay: Feline blood serum immunofluorescent bead analysis: MMP-2; format: in vivo, cat; details: for MMP-2, relative blood serum measure: cats BR, CF
Procedure: as §1

[4] = test system: HIV-1-transfected HeLa host cells (pNL4-3); assay: Virus release in HIV-transfected HeLa cells (radiolabel, immunoprecipitation); format: cell-based, human; details: vs untreated transfected HeLa cells
From the text: Briefly, HeLa cells were transfected (calcium phosphate method) with the full-length, infectious HIV-1 molecular clone pNL4-3 to examine single-cycle particle production (Freed, 1994). Transfected cells were metabolically radiolabeled, and cell- and virus-associated proteins were immunoprecipitated and quantified as previously described (Waheed and Freed, 2008). Virus release efficiency was reduced in a concentration-dependent manner with FX101 as compared with untreated controls.

[5] = target: T1, synthetic peptide F2, the carboxy-terminal zinc finger domain of HIV-1; details: 100 pmole/microliter solutions, equal volumes; isotopic distribution of platinum at m/z~631
Procedure: FIGS. 1A and 1B show Time of Flight (TOF) mass spectroscopy (MS) fragmentation pattern of the synthetic peptide F2, the carboxy-terminal zinc finger domain of HIV-1, bound to platinum. […] Equal volumes of F2 with FX101, F2 with ZnCO3, F2 with both FX101 and ZnCO3 were mixed, resulting in four total peptide solutions. Full TOF MS was acquired on the QSTAR at the Johns Hopkins Proteomics Core Facility with 1 uL of original sample diluted 1:10 in 50% methanol with 0.1% formic acid/water and 3 uL of this mixture loaded onto the 2 um New Objective tip and nano-sprayed using ion spray voltage of 1200 eV; mass calibration of Csl mixture was performed prior to sample injection. Mass range 590 kDa (50%) to 10500 kDa (50%) was collected for 1.0 minute.

F2 zinc finger peptide = F2 zinc finger peptide (Human immunodeficiency virus type 1 group M subtype B, UniProt P12493)
Procedure: Solutions of F2 zinc finger peptide in phosphate-buffered saline without calcium or magnesium (see Example 1) alone or mixed with zinc and/or platinum compounds were analyzed by MALDI-TOF (matrix-assisted laser desorption/time-of-flight) MS (mass spectrometry). Briefly, the samples comprised 1:1 ratios of F2 peptide with metals in phosphate buffered saline without calcium or magnesium at 2×10 moles/liter concentrations. Additionally, samples containing both Zn(II) and Pt(IV) metals with F2 peptide in a 1:1:1 ratio were analyzed, as were various Pt(IV) and Pt(II) compounds mixed with F2 peptide solutions. Samples were considered to be at equilibrium after 12 hours stored at 4° C. Volumes of 0.5-1.0 microliters for each sample were individually spotted with or without dilution at 1:10, 1:100 or 1:1000 (˜165-193 pmole/microliter) in DHB matrix (Laser Biolabs, France). […]
The main group of peaks include at least two overlapping peaks characteristic of cysteines (see note above) with neutral mass within 2451.82-2457.82 Da, singly charged ions at m/z 2452.82-2458.82 Da. […] While MALDI-TOF MS is not quantitative, relative peak heights are proportional to relative amounts of species.

Calcitonin = assay: Feline blood serum immunofluorescent bead analysis: Calcitonin; format: in vivo, cat; details: cats BR, CF
Procedure: as §1

TIMP-1 = assay: Feline blood serum immunofluorescent bead analysis: TIMP-1; format: in vivo, cat; details: cats BR, CF
Procedure: as §1

FIV Petaluma = assay: p25 antigen evaluation of antiviral activity in MBM cells; format: cell-based, feline; details: for p25 Viral Antigen (OD), average / p25 Viral Antigen (OD), individual wells: 7 days post infection, K+ = 1.195, K− = 0.08, listed as 4
Procedure: Antiviral activity in MBM was determined by inoculating 200 Tissue Culture Infectious Doses 50% FIV Petaluma (Talbott, 1989) in 100 μL RPMI 1640 medium into quadruplicate wells of 96-well microplates containing 2×10^5 cells in 100 μL medium. The cultures were monitored by measuring FIV p25 capsid protein (Lombardi, 1994) release in the supernatants after 7 days of incubation at 37° C. in 5% CO2 (Table 12). Half the media (without drug) was replaced on days 2 and 6 after infection and initial drug exposure. […] Drugs are identified as: CPA-7 (#1); NAD (#2); cisplatin (#3) and FX101 (#4). […]. […] A minimum of 50% inhibition in vitro is required to offset viral infectivity and replication in vivo.

[6] = test system: virions from HIV-1-transfected HeLa cells (pNL4-3); assay: Electron micrographs of virions from HIV-1 transfected HeLa cells; format: cell-based, human; details: 10 and 20 uM; vs untreated control cells
Procedure: Virions collected from HeLa cells 24 hours post-transfected with pNL4-3 HIV-1 were treated with or without FX101 for 2 hours, washed with phosphate-buffered saline, pelleted by ultracentrifugation, fixed with buffer containing 2% glutaraldehyde and 0.1M sodium cacodylate as described (Freed, 1994), and analyzed by electron microscopy. These images reveal comparative distortions of both viral core and corresponding membranes of viral progeny, consistent with published images of immature virion particles having a thick electron-dense outer shell and an electron-lucent center lacking a typical cone-shaped core, produced by nucleocapsid mutant virions (Tanchou, 1998). Mutational deletion of either or both zinc finger domains of the nucleocapsid protein also produces morphologically altered virions, reduces virion release and alters RNA packaging (Houzet, 2008). The failure of nucleocapsid protein proteins to chaperone viral RNA together with the failure to form the nucleocapsid membrane reflects two roles of nucleocapsid proteins involving zinc finger domains. Obstruction of virion assembly may create impotent virions while maintaining antigens for host humoral immune response as virus-like particles. […]

[7] = post treatment (one-month FX101 treatment)

[NH2][Pt]([NH2])([Cl])([Cl])([Cl])[N+](=O)[O-] [FX101, nitrotrichlorodiamminoPt(IV)]
reverse transcription rate [1]: do not inhibit reverse transcription in this system, but rather increase this rate | direct inhibition of viral transcription or infectivity [2]: did not act as a direct inhibitor of viral transcription or infectivity | IL-13, relative blood serum measure (IL-13; [7]): 27 pg/mL and 34 pg/mL | IL-13, relative blood serum measure (IL-13; pretreatment): 15 pg/mL and 12 pg/mL | comparative absorption at 250 nm of metal with F2 peptide [3]: 0.118 | MMP-2, relative blood serum measure (MMP-2; [7]): 2070 ng/mL and 2120 ng/mL | MMP-2 in serum of treated cats (in words) (MMP-2; post vs pre one-month treatment): Reductions | MMP-2, relative blood serum measure (MMP-2; pretreatment): 3000 ng/mL and 3150 ng/mL | p24 Gag proteins [4]: greatly reduced | HIV-1 virus release efficiency ([4]; concentration-dependent): greatly reduced | direct binding of platinum to F2 peptide by TOF MS [5]: Pt-bound peptide | competition with zinc for the F2 zinc finger binding domain (F2 zinc finger peptide; 1:1:1 F2:FX:Zn): thermodynamic competition of FX over zinc | coordination with F2 peptide (set of peaks at m/z 2452.82-2458.82 Da) (F2 zinc finger peptide; 1:1 with F2 peptide in PBS, 12 hours at 4° C.): unique to the F2 peptide+FX spectral complex | Calcitonin, relative blood serum measure (Calcitonin; [7]): 2.9 pg/mL | Calcitonin, relative blood serum measure (Calcitonin; pretreatment): 7.6 pg/mL and 11 pg/mL | TIMP-1, relative blood serum measure (TIMP-1; [7]): 9.0 ng/mL and 7.3 ng/mL | TIMP-1, relative blood serum measure (TIMP-1; pretreatment): 6.5 ng/mL and 9.8 ng/mL | inhibition (elimination of all measures of virus) by day 7 (FIV Petaluma; 7 days, concentrations used 5 and 20 μM, listed as #4): 100% | p25 Viral Antigen (OD), average (FIV Petaluma; conc 5 μM): 0 OD | p25 Viral Antigen (OD), individual wells (FIV Petaluma; conc 5 μM): 0 OD | p25 Viral Antigen (OD), average (FIV Petaluma; conc 20 μM): 0 OD | p25 Viral Antigen (OD), individual wells (FIV Petaluma; conc 20 μM): 0 OD | virion morphology (phenotype of virions produced) [6]: immature virions; also recorded: nucleotide-defective and nucleotide-deficient virion particles with morphologically altered phenotypes
